Experimental data reported in ChEMBL document CHEMBL5465560, “Selectivity Literature for EUbOPEN Chemogenomic Library” (2024).
Blank lines part the entries; values can stand above or below the compound they belong to.

Key:
Conditions in all cases: at 10 µM
[1] = target: T1, Ankyrin repeat and protein kinase domain-containing protein 1 (Homo sapiens) (UniProt Q8NFD2)
T1 sequence (whole entry): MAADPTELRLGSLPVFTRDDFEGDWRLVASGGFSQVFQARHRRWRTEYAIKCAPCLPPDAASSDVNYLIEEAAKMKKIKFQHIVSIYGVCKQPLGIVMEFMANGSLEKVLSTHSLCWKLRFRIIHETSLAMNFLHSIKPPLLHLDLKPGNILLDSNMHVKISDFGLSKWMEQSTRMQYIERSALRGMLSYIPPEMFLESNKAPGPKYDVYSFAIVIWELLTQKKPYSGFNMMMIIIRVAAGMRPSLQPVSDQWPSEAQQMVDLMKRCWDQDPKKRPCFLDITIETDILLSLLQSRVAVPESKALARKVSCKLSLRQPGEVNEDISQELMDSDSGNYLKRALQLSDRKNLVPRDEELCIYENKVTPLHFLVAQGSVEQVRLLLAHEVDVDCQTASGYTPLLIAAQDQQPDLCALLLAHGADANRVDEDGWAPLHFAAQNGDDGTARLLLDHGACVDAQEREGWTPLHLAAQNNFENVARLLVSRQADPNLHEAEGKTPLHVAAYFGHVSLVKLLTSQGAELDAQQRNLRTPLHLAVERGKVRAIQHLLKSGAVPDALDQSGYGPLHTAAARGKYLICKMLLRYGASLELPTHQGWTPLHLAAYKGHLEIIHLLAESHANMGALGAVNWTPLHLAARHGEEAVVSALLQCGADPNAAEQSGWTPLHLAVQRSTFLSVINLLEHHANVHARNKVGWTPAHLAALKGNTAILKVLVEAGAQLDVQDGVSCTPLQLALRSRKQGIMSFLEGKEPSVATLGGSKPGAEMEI

[2] = target: T2, Serine/threonine-protein kinase PLK4 (Homo sapiens) (UniProt O00444)
T2 sequence (whole entry): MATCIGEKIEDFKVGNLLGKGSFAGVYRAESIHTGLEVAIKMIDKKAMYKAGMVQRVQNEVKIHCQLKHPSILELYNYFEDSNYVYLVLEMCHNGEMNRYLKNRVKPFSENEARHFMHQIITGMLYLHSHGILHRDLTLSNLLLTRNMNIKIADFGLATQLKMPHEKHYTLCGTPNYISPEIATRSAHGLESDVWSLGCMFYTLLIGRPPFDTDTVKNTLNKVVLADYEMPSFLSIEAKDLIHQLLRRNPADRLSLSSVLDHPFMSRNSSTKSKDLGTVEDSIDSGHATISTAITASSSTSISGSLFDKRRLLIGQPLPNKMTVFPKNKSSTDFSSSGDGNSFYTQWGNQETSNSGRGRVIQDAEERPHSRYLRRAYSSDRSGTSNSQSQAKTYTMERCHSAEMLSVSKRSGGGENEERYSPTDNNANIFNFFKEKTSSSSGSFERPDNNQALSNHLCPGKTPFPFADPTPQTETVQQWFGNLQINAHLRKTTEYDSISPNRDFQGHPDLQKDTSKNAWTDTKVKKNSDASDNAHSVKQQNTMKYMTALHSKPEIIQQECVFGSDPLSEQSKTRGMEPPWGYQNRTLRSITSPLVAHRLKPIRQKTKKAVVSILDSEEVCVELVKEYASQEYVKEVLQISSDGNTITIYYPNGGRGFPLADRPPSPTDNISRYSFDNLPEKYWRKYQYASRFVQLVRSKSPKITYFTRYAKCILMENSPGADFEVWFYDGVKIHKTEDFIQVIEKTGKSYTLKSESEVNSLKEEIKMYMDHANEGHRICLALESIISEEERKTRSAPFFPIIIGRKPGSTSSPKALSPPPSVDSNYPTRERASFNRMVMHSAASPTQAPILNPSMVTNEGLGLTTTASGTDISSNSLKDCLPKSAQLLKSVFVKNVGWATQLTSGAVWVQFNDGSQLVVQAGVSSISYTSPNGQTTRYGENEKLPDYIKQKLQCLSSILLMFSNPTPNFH

[3] = target: Cyclin-dependent kinase 8 (Homo sapiens, UniProt P49336); assay: Selectivity interaction (KinomeScan (DiscoverX)) EUB0000655a CDK8
Cyclin-dependent kinase 8, sequence (P49336 whole entry): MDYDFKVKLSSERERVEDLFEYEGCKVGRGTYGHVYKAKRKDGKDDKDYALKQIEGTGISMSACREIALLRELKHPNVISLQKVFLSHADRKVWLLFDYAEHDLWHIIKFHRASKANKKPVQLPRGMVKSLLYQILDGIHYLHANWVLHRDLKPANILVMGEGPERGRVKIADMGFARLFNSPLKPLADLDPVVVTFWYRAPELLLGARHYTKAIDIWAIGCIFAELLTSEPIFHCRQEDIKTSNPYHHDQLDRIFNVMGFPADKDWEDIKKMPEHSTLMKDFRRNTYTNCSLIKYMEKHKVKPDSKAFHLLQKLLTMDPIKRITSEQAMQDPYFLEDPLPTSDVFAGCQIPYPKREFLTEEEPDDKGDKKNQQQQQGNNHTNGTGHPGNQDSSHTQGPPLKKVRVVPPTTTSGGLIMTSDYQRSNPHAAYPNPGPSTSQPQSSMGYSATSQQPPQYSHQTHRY

[4] = target: Calcium/calmodulin-dependent protein kinase type II subunit alpha (Homo sapiens, UniProt Q9UQM7); assay: Selectivity interaction (KinomeScan (DiscoverX)) EUB0000618a CAMK2A
Calcium/calmodulin-dependent protein kinase type II subunit alpha, sequence (Q9UQM7 whole entry): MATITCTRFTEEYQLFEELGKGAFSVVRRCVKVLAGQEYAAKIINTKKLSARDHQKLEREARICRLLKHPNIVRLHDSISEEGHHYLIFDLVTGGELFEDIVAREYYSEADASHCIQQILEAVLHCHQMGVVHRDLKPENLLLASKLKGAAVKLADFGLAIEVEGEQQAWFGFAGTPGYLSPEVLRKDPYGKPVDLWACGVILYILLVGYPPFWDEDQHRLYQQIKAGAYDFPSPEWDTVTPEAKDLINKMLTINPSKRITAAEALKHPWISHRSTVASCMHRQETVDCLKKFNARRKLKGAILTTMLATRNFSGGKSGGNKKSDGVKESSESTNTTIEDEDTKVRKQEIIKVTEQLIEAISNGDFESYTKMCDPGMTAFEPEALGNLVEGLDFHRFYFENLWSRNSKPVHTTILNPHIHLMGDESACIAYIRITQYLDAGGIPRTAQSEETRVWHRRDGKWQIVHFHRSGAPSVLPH

% of control [1]: 100%
% of control [2]: 100%
SMILES: CCN(CC)CCCCNc1ncc2cc(-c3cc(OC)cc(OC)c3)c(NC(=O)NC(C)(C)C)nc2n1

SMILES: CN(C)CCOc1ccc(-c2nc(-c3ccncc3)c(-c3ccc4c(c3)CC/C4=N\O)[nH]2)cc1
% of control [3]: 83%

SMILES: O[C@H]1CC[C@H](Nc2ncc3nc(Nc4c(F)cc(F)cc4F)n([C@H]4CCOC4)c3n2)CC1
% of control [4]: 95%
